This note sets out measurements from ChEMBL document CHEMBL5550160, “Leveraging a rationally designed veliparib-based anilide eliciting anti-leukemic effects for the design of pH-responsive polymer nanoformulation” (Eur J Med Chem, 2024).

Calls of active or inactive are those of the source. No cut-off for these calls is given here.

Assay [1] deals with HL-60. Kind of assay: Downregulation of HDAC2 protein expression in human HL-60 cells at 0.5 to 1 times IC50 by Western blot analysis. It counts as functional, cell-based.
The target of assay [2] is T1, Histone deacetylase 8 (Homo sapiens) (UniProt Q9BY41).
T1 sequence (whole entry): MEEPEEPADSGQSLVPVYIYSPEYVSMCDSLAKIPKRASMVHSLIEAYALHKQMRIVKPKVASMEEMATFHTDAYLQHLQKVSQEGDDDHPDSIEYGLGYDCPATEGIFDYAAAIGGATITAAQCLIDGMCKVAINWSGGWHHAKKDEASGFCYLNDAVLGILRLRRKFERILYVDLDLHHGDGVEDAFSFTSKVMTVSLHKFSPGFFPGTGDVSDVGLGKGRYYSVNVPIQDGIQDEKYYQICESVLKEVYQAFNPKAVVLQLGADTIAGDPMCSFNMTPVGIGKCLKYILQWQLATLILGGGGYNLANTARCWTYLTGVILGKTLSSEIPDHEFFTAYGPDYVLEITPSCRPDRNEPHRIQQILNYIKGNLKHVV
As to the kind of experiment: Inhibition of HDAC8 (unknown origin) assessed as residual activity at 3.33 x 10^-6M (reference value: 100%). Particulars: dose 3.33 10^-6M.

Assay [3] relates to HL-60. As to the kind of experiment: Induction of cell cycle arrest in G0/G1 phase in human HL-60 cells assessed as downregulation of p-AKT protein expression at 0.5 to 1 times IC50 by Western blot analysis. It counts as functional, cell-based.
For assay [4], the target named is Histone deacetylase 9 (Homo sapiens) (UniProt Q9UKV0). As to the kind of experiment: Inhibition of HDAC9 (unknown origin) assessed as residual activity at 3.33 x 10^-6M (reference value: 97.55%). Particulars: dose 3.33 10^-6M.
The target of assay [5] is Histone deacetylase 5 (Homo sapiens) (UniProt Q9UQL6). Kind of assay: Inhibition of HDAC5 (unknown origin) assessed as residual activity at 1 x 10^-5M (reference value: 100%). Particulars: dose 1.0 10^-5M.
Assay [6] deals with T2, Polyamine deacetylase HDAC10 (Homo sapiens) (UniProt Q969S8).
T2 sequence (whole entry): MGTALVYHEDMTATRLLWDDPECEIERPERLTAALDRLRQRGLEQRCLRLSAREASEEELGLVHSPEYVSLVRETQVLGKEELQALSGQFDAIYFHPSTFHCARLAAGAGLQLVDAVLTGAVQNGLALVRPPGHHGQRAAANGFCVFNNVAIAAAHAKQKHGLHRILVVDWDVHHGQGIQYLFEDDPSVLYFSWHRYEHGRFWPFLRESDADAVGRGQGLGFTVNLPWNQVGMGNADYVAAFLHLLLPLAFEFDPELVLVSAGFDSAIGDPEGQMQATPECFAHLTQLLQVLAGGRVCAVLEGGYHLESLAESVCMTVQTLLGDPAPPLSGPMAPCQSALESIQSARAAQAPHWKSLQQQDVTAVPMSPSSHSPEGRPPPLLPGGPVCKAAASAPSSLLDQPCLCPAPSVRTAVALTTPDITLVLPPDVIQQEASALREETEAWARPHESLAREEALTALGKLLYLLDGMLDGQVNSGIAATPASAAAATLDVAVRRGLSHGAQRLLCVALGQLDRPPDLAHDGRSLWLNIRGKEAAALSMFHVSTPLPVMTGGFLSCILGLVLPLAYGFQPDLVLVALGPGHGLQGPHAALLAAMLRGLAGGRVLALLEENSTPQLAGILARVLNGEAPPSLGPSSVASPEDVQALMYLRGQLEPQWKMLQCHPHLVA
As to the kind of experiment: Inhibition of HDAC10 (unknown origin) assessed as residual activity at 4.57 x 10^-9M (reference value: 101.54%). Conditions: dose 4.57 10^-9M.

Assay [7] has as its target Histone deacetylase 9 (Homo sapiens) (UniProt Q9UKV0). Kind of assay: Inhibition of HDAC9 (unknown origin) assessed as residual activity at 1 x 10^-5M (reference value: 97.55%). Conditions: dose 1.0 10^-5M.
In assay [8] the target is T3, Protein deacetylase HDAC6 (Homo sapiens) (UniProt Q9UBN7).
T3 sequence (whole entry): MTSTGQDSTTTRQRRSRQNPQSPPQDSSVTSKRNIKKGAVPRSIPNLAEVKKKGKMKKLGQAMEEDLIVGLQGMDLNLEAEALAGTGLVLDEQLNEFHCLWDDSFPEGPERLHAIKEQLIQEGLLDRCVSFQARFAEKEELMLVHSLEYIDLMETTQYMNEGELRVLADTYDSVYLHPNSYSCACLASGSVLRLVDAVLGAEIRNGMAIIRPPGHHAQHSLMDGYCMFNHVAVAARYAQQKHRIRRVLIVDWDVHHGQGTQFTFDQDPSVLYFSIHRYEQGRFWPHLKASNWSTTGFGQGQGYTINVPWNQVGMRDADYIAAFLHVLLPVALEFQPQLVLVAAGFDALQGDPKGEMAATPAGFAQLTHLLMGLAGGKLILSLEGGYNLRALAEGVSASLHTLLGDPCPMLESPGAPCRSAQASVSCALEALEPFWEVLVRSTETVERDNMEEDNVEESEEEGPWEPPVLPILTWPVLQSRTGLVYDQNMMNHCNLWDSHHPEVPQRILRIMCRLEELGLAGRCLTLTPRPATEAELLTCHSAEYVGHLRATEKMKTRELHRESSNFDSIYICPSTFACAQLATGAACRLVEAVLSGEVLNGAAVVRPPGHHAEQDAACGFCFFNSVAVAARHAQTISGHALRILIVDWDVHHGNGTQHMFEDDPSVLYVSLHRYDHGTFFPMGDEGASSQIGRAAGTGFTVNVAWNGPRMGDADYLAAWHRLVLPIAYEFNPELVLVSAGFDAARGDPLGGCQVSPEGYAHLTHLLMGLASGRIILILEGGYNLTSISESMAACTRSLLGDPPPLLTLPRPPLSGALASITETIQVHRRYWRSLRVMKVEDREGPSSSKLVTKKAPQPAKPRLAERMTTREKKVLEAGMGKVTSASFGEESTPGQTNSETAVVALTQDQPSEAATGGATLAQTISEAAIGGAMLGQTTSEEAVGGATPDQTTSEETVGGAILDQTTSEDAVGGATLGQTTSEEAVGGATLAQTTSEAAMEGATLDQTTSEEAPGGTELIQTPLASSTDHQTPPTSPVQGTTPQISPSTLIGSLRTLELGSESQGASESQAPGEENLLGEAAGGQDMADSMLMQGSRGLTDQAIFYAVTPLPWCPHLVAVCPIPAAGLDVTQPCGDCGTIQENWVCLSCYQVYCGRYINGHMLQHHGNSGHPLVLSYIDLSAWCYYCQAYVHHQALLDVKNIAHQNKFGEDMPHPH
Kind of assay: Inhibition of HDAC6 (unknown origin) using p53 residues 379 to 382 [RHKK(Ac)] as fluorogenic substrate assessed as residual activity at 5.08 x 10^-10M (reference value: 101.06%). Particulars: dose 5.08 10^-10M.

The target in assay [9] is Histone deacetylase 3 (Homo sapiens, UniProt O15379). As to the kind of experiment: Inhibition of HDAC3 (unknown origin) using p53 residues 379 to 382 [RHKK(Ac)] as fluorogenic substrate assessed as residual activity at 4.12 x 10^-8M (reference value: 103.08%). Conditions: dose 4.12 10^-8M.
Sequence of Histone deacetylase 3 (O15379 whole entry, the tested form may be a part): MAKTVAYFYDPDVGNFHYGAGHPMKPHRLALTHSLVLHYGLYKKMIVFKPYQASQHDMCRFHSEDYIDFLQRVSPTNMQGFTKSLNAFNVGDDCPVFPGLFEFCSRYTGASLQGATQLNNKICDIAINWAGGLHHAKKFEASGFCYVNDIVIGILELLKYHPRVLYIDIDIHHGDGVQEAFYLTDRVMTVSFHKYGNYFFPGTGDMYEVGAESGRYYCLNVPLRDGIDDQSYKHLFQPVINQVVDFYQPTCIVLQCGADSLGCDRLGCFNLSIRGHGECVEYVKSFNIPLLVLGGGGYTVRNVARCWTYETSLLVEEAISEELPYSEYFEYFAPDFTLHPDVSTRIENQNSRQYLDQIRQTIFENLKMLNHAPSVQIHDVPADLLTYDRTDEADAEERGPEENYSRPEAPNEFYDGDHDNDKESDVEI

Sequence of Histone deacetylase 9 (Homo sapiens) (Q9UKV0 whole entry): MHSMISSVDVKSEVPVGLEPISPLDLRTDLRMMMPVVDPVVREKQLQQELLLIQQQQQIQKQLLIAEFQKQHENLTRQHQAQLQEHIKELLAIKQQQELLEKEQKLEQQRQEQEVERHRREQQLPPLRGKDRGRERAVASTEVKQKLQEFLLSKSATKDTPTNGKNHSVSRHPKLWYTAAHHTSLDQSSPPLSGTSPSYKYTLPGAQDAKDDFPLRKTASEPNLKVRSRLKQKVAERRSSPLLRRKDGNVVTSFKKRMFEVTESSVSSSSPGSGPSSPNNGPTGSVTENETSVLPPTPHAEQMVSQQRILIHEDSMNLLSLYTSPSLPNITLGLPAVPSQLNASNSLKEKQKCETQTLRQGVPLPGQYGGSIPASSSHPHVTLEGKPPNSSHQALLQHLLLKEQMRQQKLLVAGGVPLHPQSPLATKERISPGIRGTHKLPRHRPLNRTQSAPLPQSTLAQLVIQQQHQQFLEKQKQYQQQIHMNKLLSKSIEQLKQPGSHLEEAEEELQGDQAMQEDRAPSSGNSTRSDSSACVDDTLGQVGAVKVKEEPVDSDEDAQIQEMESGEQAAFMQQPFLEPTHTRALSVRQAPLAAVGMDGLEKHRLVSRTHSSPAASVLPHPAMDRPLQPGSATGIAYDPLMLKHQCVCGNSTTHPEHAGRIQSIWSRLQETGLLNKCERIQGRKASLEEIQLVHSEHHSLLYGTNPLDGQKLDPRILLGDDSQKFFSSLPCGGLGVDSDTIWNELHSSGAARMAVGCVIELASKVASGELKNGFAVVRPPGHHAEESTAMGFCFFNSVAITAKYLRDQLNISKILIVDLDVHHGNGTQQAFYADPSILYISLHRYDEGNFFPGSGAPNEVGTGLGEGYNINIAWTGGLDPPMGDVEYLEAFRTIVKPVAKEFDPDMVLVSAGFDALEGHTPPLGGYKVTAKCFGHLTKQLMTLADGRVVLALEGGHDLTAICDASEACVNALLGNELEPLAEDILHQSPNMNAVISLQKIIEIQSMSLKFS
Sequence of Histone deacetylase 5 (Homo sapiens) (Q9UQL6 whole entry): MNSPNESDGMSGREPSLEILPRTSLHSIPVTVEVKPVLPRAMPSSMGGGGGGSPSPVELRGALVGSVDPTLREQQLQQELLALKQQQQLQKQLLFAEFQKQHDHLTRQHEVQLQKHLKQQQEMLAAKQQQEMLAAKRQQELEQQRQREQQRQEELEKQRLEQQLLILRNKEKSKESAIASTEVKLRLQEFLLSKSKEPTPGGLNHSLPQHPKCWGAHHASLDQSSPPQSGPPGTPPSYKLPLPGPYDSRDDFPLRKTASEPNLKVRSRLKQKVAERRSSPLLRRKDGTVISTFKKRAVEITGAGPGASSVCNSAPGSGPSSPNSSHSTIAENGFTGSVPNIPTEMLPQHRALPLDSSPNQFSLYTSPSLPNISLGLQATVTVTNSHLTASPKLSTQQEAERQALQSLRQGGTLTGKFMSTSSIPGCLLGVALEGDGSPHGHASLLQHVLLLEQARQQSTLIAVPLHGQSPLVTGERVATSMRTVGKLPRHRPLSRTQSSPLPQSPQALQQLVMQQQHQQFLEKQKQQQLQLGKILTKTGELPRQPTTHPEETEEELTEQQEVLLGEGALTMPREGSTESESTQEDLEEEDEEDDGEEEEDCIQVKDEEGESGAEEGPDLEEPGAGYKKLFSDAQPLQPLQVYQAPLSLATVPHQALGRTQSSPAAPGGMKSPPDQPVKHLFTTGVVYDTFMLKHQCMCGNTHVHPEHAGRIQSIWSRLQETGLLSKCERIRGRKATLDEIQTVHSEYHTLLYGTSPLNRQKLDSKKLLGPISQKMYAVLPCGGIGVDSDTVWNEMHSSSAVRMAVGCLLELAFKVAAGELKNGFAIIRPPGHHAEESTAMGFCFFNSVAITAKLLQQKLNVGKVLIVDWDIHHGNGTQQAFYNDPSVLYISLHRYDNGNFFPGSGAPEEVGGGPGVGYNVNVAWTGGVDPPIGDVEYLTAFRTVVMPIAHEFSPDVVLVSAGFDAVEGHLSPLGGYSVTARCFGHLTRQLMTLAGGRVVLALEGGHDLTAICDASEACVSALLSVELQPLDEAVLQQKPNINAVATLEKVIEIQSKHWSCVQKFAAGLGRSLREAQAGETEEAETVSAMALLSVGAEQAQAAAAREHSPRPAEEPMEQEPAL

Consider `NC(=O)c1cccc2[nH]c(-c3ccc(NCc4ccc(C(=O)Nc5ccccc5N)cc4)cc3)nc12`, for which the result in assay [1] and in [3] was Active. The Activity in assay [2] was 96.9%; in assay [4], 81%; in assay [5], 111%; in assay [6] it was 98.8%; in assay [7], 100%; in assay [8], 101%. In assay [9], the Activity worked out at 91.1%.
